Tests used:
AuroraA-TPX2 = biological target: T1, AuroraA-TPX2 (Homo sapiens, UniProt O14965); experiment: AuroraA-TPX2 Homogeneous Time Resolved Fluorescent (HTRF) kinase assay; format: biochemical; settings: average; read-out: AurA_IC50_IP (uM Avg)
T1 construct: 20 μL of AuroraA-TPX2 KD GST for a final volume of about 41 μL; GST
T1 sequence (O14965 133-383 limits assumed): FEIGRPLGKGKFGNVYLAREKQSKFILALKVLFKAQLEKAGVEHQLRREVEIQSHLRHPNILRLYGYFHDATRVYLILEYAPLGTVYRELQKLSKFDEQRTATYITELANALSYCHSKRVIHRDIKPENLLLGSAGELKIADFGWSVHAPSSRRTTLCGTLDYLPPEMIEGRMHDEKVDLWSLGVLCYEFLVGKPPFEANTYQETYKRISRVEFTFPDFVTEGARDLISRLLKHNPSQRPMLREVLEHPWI
T1 sequence (Q9ULW0 1-43 partner limits assumed): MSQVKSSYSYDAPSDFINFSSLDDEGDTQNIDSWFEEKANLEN
Procedure, shortened: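 HTRF read-out (Eu 615 nm to APC 655 nm) of phosphorylated biotin-PLK, detected with 0.02 nM europium anti-phosphoPLK antibody and 0.0005 mg/mL SA-APC after overnight equilibration.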

AuroraB = biological target: T2, AuroraB (Homo sapiens, UniProt Q96GD4); experiment: AuroraB Homogeneous Time Resolved Fluorescent (HTRF) kinase assay; format: biochemical; settings: average; read-out: AurB_IC50_IP (uM Avg)
T2 construct: 20 μL of AuroraB FL H is for a final volume of 41 μL; His
T2 sequence (Q96GD4 whole entry): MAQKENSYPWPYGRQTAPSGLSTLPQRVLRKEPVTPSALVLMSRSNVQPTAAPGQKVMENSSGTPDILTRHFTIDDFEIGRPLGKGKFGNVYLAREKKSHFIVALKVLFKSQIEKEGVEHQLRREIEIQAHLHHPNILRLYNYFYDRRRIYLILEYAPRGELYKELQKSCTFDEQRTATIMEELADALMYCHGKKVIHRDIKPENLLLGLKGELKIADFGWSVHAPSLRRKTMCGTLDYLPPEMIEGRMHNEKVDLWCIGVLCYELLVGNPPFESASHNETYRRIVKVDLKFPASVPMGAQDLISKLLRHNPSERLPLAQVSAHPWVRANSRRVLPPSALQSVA
Procedure, shortened: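 Full-length His-tagged kinase phosphorylates biotinylated Histone H3 (0.1 μM final) with ATP in pH 7.5 HEPES containing MgCl, MnCl, DTT and BSA for about 90 min. EDTA-containing detection mix with SA-APC and Eu-anti-phosphoHistone H3 then equilibrated about 60 min; HTRF read with 320 nm excitation, emissions 615/655 nm.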

SMILES | IC50 (AuroraA-TPX2) | IC50 (AuroraB)
Cc1ccc(-c2ccc3c(Oc4ccc(Nc5nnc(-c6ccccc6)c6ccccc56)cc4)ccnc3c2)o1 [compound 344, N-(4-(7-(5-methylfuran-2-yl)quinolin-4-yloxy)phenyl)-4-phenylphthalazin-1-amine] | 0.057 µM | 0.022 µM
COc1ccc2c(Oc3ccc(Nc4nnc(-c5ccc(Cl)cc5)c5ccccc45)cc3)ccnc2c1 [compound 345, 4-(4-chlorophenyl)-N-(4-(7-methoxyquinolin-4-yloxy)phenyl)phthalazin-1-amine] | 0.04 µM | 0.024 µM
COc1cnc2c(Sc3ccc(Nc4nnc(N5CCCCC5)c5ccccc45)cc3)ccnc2c1 [compound 346, N-(4-(7-methoxy-1,5-naphthyridin-4-ylthio)phenyl)-4-(piperidin-1-yl)phthalazin-1-amine] | 0.044 µM | 0.024 µM
COc1ccc2nccc(Oc3ccc(Nc4nnc(-c5ccccc5)c5ccccc45)cc3)c2n1 [compound 347, N-(4-(6-methoxy-1,5-naphthyridin-4-yloxy)phenyl)-4-phenylphthalazin-1-amine] | 0.067 µM | 0.01 µM
COc1ccc2nccc(Sc3ccc(Nc4nnc(-c5ccc(Cl)cc5)c5ccccc45)cc3)c2n1 [compound 348, 4-(4-chlorophenyl)-N-(4-(6-methoxy-1,5-naphthyridin-4-ylthio)phenyl)phthalazin-1-amine] | 0.057 µM | 0.023 µM
COc1cnc2c(Oc3ccc(Nc4nnc(-c5cc(C)no5)c5ccccc45)cc3)ccnc2c1 [compound 350, N-(4-(7-methoxy-1,5-naphthyridin-4-yloxy)phenyl)-4-(3-methylisoxazol-5-yl)phthalazin-1-amine] | 0.04 µM | 0.007 µM
N#Cc1cc2nccc(Sc3ccc(Nc4nnc(-c5ccc(Cl)cc5)c5ccccc45)cc3)c2s1 [compound 351, 7-(4-(4-(4-chlorophenyl)phthalazin-1-ylamino)phenylthio)thieno[3,2-b]pyridine-2-carbonitrile] | 0.008 µM | 0.003 µM
c1ccc(-c2nnc(Nc3ccc(Sc4ccnc5[nH]ncc45)cc3)c3ccccc23)cc1 [compound 352, N-(4-(1H-pyrazolo[3,4-b]pyridin-4-ylthio)phenyl)-4-phenylphthalazin-1-amine] | 0.074 µM | 0.001 µM
COc1cc2nccc(Sc3ccc(Nc4nnc(-c5ccccc5)c5ccccc45)cc3)c2cn1 [compound 353, N-(4-(7-methoxy-1,6-naphthyridin-4-ylthio)phenyl)-4-phenylphthalazin-1-amine] | 0.058 µM | 0.008 µM
COc1cc2nccc(Sc3ccc(Nc4nnc(-c5ccc(Cl)cc5)c5ccccc45)cc3)c2cn1 [compound 354, 4-(4-chlorophenyl)-N-(4-(7-methoxy-1,6-naphthyridin-4-ylthio)phenyl)phthalazin-1-amine] | 0.025 µM | 0.009 µM
c1ccc(-c2nnc(Nc3ccc(Sc4ccnc5ccsc45)cc3)c3ccccc23)cc1 [compound 355, 4-phenyl-N-(4-(thieno[3,2-b]pyridin-7-ylthio)phenyl)phthalazin-1-amine] | 0.241 µM | 0.006 µM
COc1cnc2c(Sc3ccc(Nc4nnc(-c5ccc(F)cc5)c5ccccc45)cc3)ccnc2c1 [compound 356, 4-(4-fluorophenyl)-N-(4-(7-methoxy-1,5-naphthyridin-4-ylthio)phenyl)phthalazin-1-amine] | 0.036 µM | 0.012 µM
COc1ccc(-c2nnc(Nc3ccc(Sc4ccnc5cc(OC)cnc45)cc3)c3ccccc23)cc1 [compound 357, N-(4-(7-methoxy-1,5-naphthyridin-4-ylthio)phenyl)-4-(4-methoxyphenyl)phthalazin-1-amine] | 0.029 µM | 0.012 µM
CCc1cc(-c2ccc(C)cc2)nnc1Nc1ccc(Sc2ccnc3cccnc23)cc1 [compound 358, N-(4-(1,5-naphthyridin-4-ylthio)phenyl)-4-ethyl-6-p-tolylpyridazin-3-amine] | 0.049 µM | 0.006 µM
Clc1ccc(-c2nnc(Nc3ccc(Sc4ccnc5[nH]ncc45)cc3)c3ccccc23)cc1 [compound 359, N-(4-(1H-pyrazolo[3,4-b]pyridin-4-ylthio)phenyl)-4-(4-chlorophenyl)phthalazin-1-amine] | 0.012 µM | 0.017 µM
CNC(=O)c1cc(Oc2ccc(Nc3nnc(-c4ccc(Cl)cc4)c4ccccc34)cc2)ccn1 [compound 361, 4-(4-(4-(4-chlorophenyl)phthalazin-1-ylamino)phenoxy)-N-methylpicolinamide] | 0.245 µM | 0.173 µM
c1ccc(-c2nnc(Nc3ccc(Sc4ccnc5[nH]cnc45)cc3)c3ccccc23)cc1 [compound 362, N-(4-(3H-imidazo[4,5-b]pyridin-7-ylthio)phenyl)-4-phenylphthalazin-1-amine] | 0.066 µM | 0.092 µM
Clc1ccc(-c2nnc(Nc3ccc(Sc4ccnc5[nH]cnc45)cc3)c3ccccc23)cc1 [compound 363, N-(4-(3H-imidazo[4,5-b]pyridin-7-ylthio)phenyl)-4-(4-chlorophenyl)phthalazin-1-amine] | 0.019 µM | 0.036 µM
COc1ccc2c(Sc3ccc(Nc4nnc(-c5ccc(Cl)cn5)c5ccccc45)cc3)ccnc2c1 [compound 364, 4-(5-chloropyridin-2-yl)-N-(4-(7-methoxyquinolin-4-ylthio)phenyl)phthalazin-1-amine] | 0.036 µM | 0.073 µM
Clc1ccc(-c2nnc(Nc3ccc(Sc4ccnc5ccccc45)cc3)c3ccccc23)nc1 [compound 365, 4-(5-chloropyridin-2-yl)-N-(4-(quinolin-4-ylthio)phenyl)phthalazin-1-amine] | 0.016 µM | 0.011 µM

SMILES | IC50 (AuroraA-TPX2) | IC50 (AuroraB)
Cc1csc(-c2nnc(Nc3ccc(Sc4ccnc5ccsc45)cc3)c3ccccc23)c1 [compound 366, 4-(4-methylthiophen-2-yl)-N-(4-(thieno[3,2-b]pyridin-7-ylthio)phenyl)phthalazin-1-amine] | 0.037 µM | 0.051 µM
COc1cnc2c(Oc3ccc(Nc4nnc(-c5ccccc5)c5c4CCC5)cc3)ccnc2c1 [compound 367, N-(4-(7-methoxy-1,5-naphthyridin-4-yloxy)phenyl)-4-phenyl-6,7-dihydro-5H-cyclopenta[d]pyridazin-1-amine] | 0.028 µM | 0.057 µM
COc1ccc2c(Oc3ccc(Nc4nnc(-c5ccccc5)c5c4CCC5)cc3)ccnc2c1 [compound 368, N-(4-(7-methoxyquinolin-4-yloxy)phenyl)-4-phenyl-6,7-dihydro-5H-cyclopenta[d]pyridazin-1-amine] | 0.04 µM | 0.063 µM
c1ccc(-c2nnc(Nc3ccc(Oc4ccnc5ccnn45)cc3)c3ccccc23)cc1 [compound 370, 4-phenyl-N-(4-(pyrazolo[1,5-a]pyrimidin-7-yloxy)phenyl)phthalazin-1-amine] | 0.505 µM | 0.594 µM
COc1cnc2c(Oc3ccc(Nc4nnc(-c5ccc(Cl)cc5)c5c4CCC5)cc3)ccnc2c1 [compound 411] | > 25 µM | > 25 µM
COc1ccc2c(Oc3ccc(Nc4nnc(-c5ccc(Cl)cc5)c5c4CCC5)cc3)ccnc2c1 [compound 412] | > 25 µM | > 25 µM
COc1cnc2c(Sc3ccc(Nc4nnc(-c5ccccc5)c5ccccc45)cn3)ccnc2c1 [compound 413] | 0.09 µM | 0.031 µM
Oc1cnc2c(Sc3ccc(Nc4nnc(-c5ccccc5)c5ccccc45)cc3)ccnc2c1 [compound 415] | 0.043 µM | 0.012 µM
Cc1ccc(-c2nnc(Nc3ccc(Oc4ccnc5cccnc45)cc3)c3ccccc23)cc1N [compound 416] | 0.098 µM | 0.003 µM
c1ccc(-c2nnc(Nc3ccc(Oc4ccnc5cc(-c6cn[nH]c6)ccc45)cc3)c3ccccc23)cc1 [compound 417] | 0.009 µM | 0.002 µM
COc1cc2ncnc(Sc3ccc(Nc4nnc(-c5ccc(Cl)cc5)c5ccccc45)cc3)c2cc1OC [compound 418] | 0.028 µM | 0.012 µM
COc1ccc2nccc(Sc3ccc(Nc4nnc(-c5cccc(C)n5)c5ccccc45)cc3)c2n1 [compound 419] | 0.309 µM | 0.026 µM
COc1cnc2c(Sc3ccc(Nc4nnc(-c5cccc(C)n5)c5ccccc45)cc3)ccnc2c1 [compound 420] | 0.072 µM | 0.015 µM
Cc1cccc(-c2nnc(Nc3ccc(Sc4ccnc5cccnc45)cc3)c3ccccc23)n1 [compound 421] | 0.142 µM | 0.008 µM
COc1cc2c(Oc3ccc(Nc4nnc(-c5ccccc5)c5ccccc45)cc3)ccnc2cc1O [compound 422] | 0.029 µM | 0.013 µM
Clc1ccc(-c2nnc(Nc3ccc(Oc4ccnc5ccncc45)cc3)c3ccccc23)cc1 [compound 423] | 0.047 µM | 0.003 µM
c1ccc2c(-c3ccc4c(c3)OCO4)nnc(Nc3ccc(Oc4ccnc5ccncc45)cc3)c2c1 [compound 424] | 0.055 µM | 0.004 µM
c1ccc(-c2nnc(Nc3ccc(Sc4ccnc5ccncc45)cc3)c3ccccc23)cc1 [compound 425] | 0.171 µM | 0.003 µM
Clc1ccc(-c2nnc(Nc3ccc(Sc4ccnc5ccncc45)cc3)c3ccccc23)cc1 [compound 426] | 0.1 µM | 0.008 µM
